Laboratory results published in ChEMBL document CHEMBL4819021, “Paratrimerins J-Y, Dimeric Coumarins Isolated from the Stems of Paramignya trimera” (J Nat Prod, 2021).
The source made the active and inactive calls. The calls are words filed in the database; no cut-off is given here.

Experiments:
Format in all cases: functional, cell-based
[1] = test system: HT-1080; experiment: Cytotoxicity against human HT-1080 cells assessed as reduction in cell viability measured after 72 hrs by MTS assay; conditions: HT-1080, 72 h
[2] = test system: Huh-7; experiment: Cytotoxicity against human Huh-7 cells assessed as reduction in cell viability measured after 72 hrs by MTS assay; conditions: Huh-7, 72 h
[3] = test system: HT-29; experiment: Cytotoxicity against human HT-29 cells harboring Ras/Raf mutant assessed as reduction in cell viability measured after 72 hrs by MTS assay; conditions: HT-29, 72 h
[4] = test system: HCC70; experiment: Cytotoxicity against human HCC70 cells assessed as reduction in cell viability at 40 uM measured after 72 hrs by MTS assay
[5] = test system: SW-620; experiment: Cytotoxicity against human SW-620 cells assessed as reduction in cell viability at 40 uM measured after 72 hrs by MTS assay
[6] = test system: MDA-MB-435; experiment: Cytotoxicity against human MDA-MB-435 cells assessed as reduction in cell viability at 40 uM measured after 72 hrs by MTS assay
[7] = test system: T47D; experiment: Cytotoxicity against human T47D cells assessed as reduction in cell viability at 40 uM measured after 72 hrs by MTS assay
[8] = test system: HCC1428; experiment: Cytotoxicity against human HCC1428 cells assessed as reduction in cell viability at 40 uM measured after 72 hrs by MTS assay
[9] = test system: Hs-578T; experiment: Cytotoxicity against human Hs-578T cells assessed as reduction in cell viability at 40 uM measured after 72 hrs by MTS assay
[10] = test system: KM12; experiment: Cytotoxicity against human KM12 cells assessed as reduction in cell viability at 40 uM measured after 72 hrs by MTS assay
[11] = test system: HCC38; experiment: Cytotoxicity against human HCC38 cells assessed as reduction in cell viability at 40 uM measured after 72 hrs by MTS assay
[12] = test system: MDA-MB-231; experiment: Cytotoxicity against human MDA-MB-231 cells assessed as reduction in cell viability at 40 uM measured after 72 hrs by MTS assay
[13] = test system: BT-549; experiment: Cytotoxicity against human BT-549 cells assessed as reduction in cell viability at 40 uM measured after 72 hrs by MTS assay
[14] = test system: MCF7; experiment: Cytotoxicity against human MCF7 cells assessed as reduction in cell viability at 40 uM measured after 72 hrs by MTS assay
[15] = test system: MDA-MB-468; experiment: Cytotoxicity against human MDA-MB-468 cells assessed as reduction in cell viability at 40 uM measured after 72 hrs by MTS assay
[16] = test system: SK-HEP1; experiment: Cytotoxicity against human SK-HEP1 cells assessed as reduction in cell viability at 40 uM measured after 72 hrs by MTS assay
[17] = test system: HCT-116; experiment: Cytotoxicity against human HCT-116 cells assessed as reduction in cell viability at 40 uM measured after 72 hrs by MTS assay
[18] = test system: SW480; experiment: Cytotoxicity against human SW480 cells assessed as reduction in cell viability at 40 uM measured after 72 hrs by MTS assay
[19] = test system: RKO; experiment: Cytotoxicity against human RKO cells assessed as reduction in cell viability at 40 uM measured after 72 hrs by MTS assay
[20] = test system: COLO 205; experiment: Cytotoxicity against human COLO 205 cells assessed as reduction in cell viability at 40 uM measured after 72 hrs by MTS assay
[21] = test system: SK-BR-3; experiment: Cytotoxicity against human SK-BR-3 cells assessed as reduction in cell viability at 40 uM measured after 72 hrs by MTS assay
[22] = test system: HCT-8; experiment: Cytotoxicity against human HCT-8 cells assessed as reduction in cell viability at 40 uM measured after 72 hrs by MTS assay

Row | Compound | Activity [4] | Activity [5] | Activity [6] | Activity [7] | Activity [8] | Activity [9] | Activity [10] | Activity [11] | Activity [12] | Activity [13] | Activity [14] | Activity [15] | Activity [16] | Activity [17] | Activity [18] | Activity [19] | Activity [20] | Activity [21] | Activity [22] | also measured
1 | CC(C)=CCC/C(C)=C/Cc1cc(/C=C/C(=O)O[C@@H](Cc2c(OCC=C(C)C)ccc3ccc(=O)oc23)C(C)(C)O)c(O)cc1O |  |  |  |  |  |  |  |  |  |  |  |  |  |  |  |  |  |  |  | IC50 [1]: 18.4 µM; IC50 [2]: 14.9 µM; IC50 [3]: 22.5 µM
2 | CC1=C[C@H](c2cc3ccc(=O)oc3cc2O[C@@H]2O[C@H](CO)[C@@H](O)[C@H](O)[C@H]2O)[C@](C)(/C=C/c2cc3ccc(=O)oc3cc2O[C@@H]2O[C@H](COC3OC[C@@H](O)[C@H](O)[C@H]3O)[C@@H](O)[C@H](O)[C@H]2O)CC1 (some centres undefined) | inactive | inactive | inactive | inactive | inactive | inactive | inactive | inactive | inactive | inactive | inactive | inactive | inactive | inactive | inactive | inactive | inactive | inactive | inactive | 
3 | CC1=C[C@H](c2cc3ccc(=O)oc3cc2O[C@@H]2O[C@H](CO[C@@H]3OC[C@](O)(CO)[C@H]3O)[C@@H](O)[C@H](O)[C@H]2O)[C@](C)(/C=C/c2cc3ccc(=O)oc3cc2O[C@@H]2O[C@H](CO)[C@@H](O)[C@H](O)[C@H]2O)CC1 | inactive | inactive | inactive | inactive | inactive | inactive | inactive | inactive | inactive | inactive | inactive | inactive | inactive | inactive | inactive | inactive | inactive | inactive | inactive | 
4 | CC1=C[C@H](c2cc3ccc(=O)oc3cc2O[C@@H]2O[C@H](CO)[C@@H](O)[C@H](O)[C@H]2O)[C@](C)(/C=C/c2cc3ccc(=O)oc3cc2O[C@@H]2O[C@H](CO[C@@H]3OC[C@](O)(CO)[C@H]3O)[C@@H](O)[C@H](O)[C@H]2O)CC1 | inactive | inactive | inactive | inactive | inactive | inactive | inactive | inactive | inactive | inactive | inactive | inactive | inactive | inactive | inactive | inactive | inactive | inactive | inactive | 
5 | CC1=C[C@H](c2cc3ccc(=O)oc3cc2O[C@@H]2O[C@H](CO)[C@@H](O)[C@H](O)[C@H]2O)[C@@](C)(/C=C/c2cc3ccc(=O)oc3cc2O[C@@H]2O[C@H](COC3OC[C@@H](O)[C@H](O)[C@H]3O)[C@@H](O)[C@H](O)[C@H]2O)CC1 (some centres undefined) | inactive | inactive | inactive | inactive | inactive | inactive | inactive | inactive | inactive | inactive | inactive | inactive | inactive | inactive | inactive | inactive | inactive | inactive | inactive | 
